Experimental data reported in patent US11118200B2, “Method for preparing amines from aldehydes and ketones by biocatalysis” (COMMISSARIAT A L'ENERGIE ATOMIQUE ET AUX ENERGIES …, priority 2017, dated 2021).
Marks after values point to notes of the source that are not given here.

Key:
enzyme of SEQ ID NO:3 [1] = assay: Screening of carbonyl-containing compounds with ammonia as amine source (specific activity, absorbance at 340 nm); type: biochemical, Microbacterium sp. MA1; conditions: 10 mM of carbonyl-containing compound, ammonia as amine source
Experimental: (§1) All the reactions were conducted at 25° C. in spectrophotometric cell (10 mm light path). To a mixture of ammonium formate buffer (2 M NH4HCO2/NH4OH, pH 9.5), NADH or NADPH (0.2 mM) and an appropriate amount of purified enzyme was added.

enzyme of SEQ ID NO:5 [2] = assay: Screening of carbonyl-containing compounds with methylamine as amine source; type: biochemical, Mycobacterium vaccae ATCC 25954; conditions: preliminary; for Specific activity, SEQ ID NO: 5: methylamine (500 mM) as amine source, NADH/NADPH (0.1 mM each), carbonyl-containing compound 5 mM; for activity of enzyme of SEQ ID NO:5 on the substrate with methylamine (in words): methylamine as amine source
Experimental: (§2) All the reactions were conducted at 25° C. in spectrophotometric cell (10 mm light path). To a mixture of TRIS.HCl buffer (50 mM, pH 9.5), NADH and NADPH (0.1 mM each), methylamine (500 mM) and an appropriate amount of purified enzyme was added. Carbonyl-containing compound (5 mM) is then added to initiate the reaction (reaction final volume 100 μL). The initial slope measured at 340 nm determined the specific activity of the enzyme according to Beer-Lambert's law and the molar absorptivity of β-NADH (ϵ=6298 M^−1 cm^−1).

enzyme of SEQ ID NO:4 [3] = assay: as above; type: biochemical, Aminomonas paucivorans DSM 12260; conditions: preliminary
Experimental: as §2

enzyme of SEQ ID NO:2 [4] = assay: as above; type: biochemical, Cystobacter fuscus DSM 2262; conditions: preliminary
Experimental: as §2

enzyme of SEQ ID NO:1 [5] = assay: as above; type: biochemical, Mycobacterium smegmatis; conditions: preliminary; for Specific activity, SEQ ID NO: 1: methylamine (500 mM) as amine source, NADH/NADPH (0.1 mM each), carbonyl-containing compound 5 mM; for activity of enzyme of SEQ ID NO:1 on the substrate with methylamine (in words): methylamine as amine source
Experimental: as §2

enzyme of SEQ ID NO:3 [6] = assay: as above; type: biochemical, Microbacterium sp. MA1; conditions: preliminary; for Specific activity, SEQ ID NO: 3: methylamine (500 mM) as amine source, NADH/NADPH (0.1 mM each), carbonyl-containing compound 5 mM; for activity of enzyme of SEQ ID NO:3 on the substrate with methylamine (in words): methylamine as amine source
Experimental: as §2

enzyme of SEQ ID NO:1 [7] = assay: Screening of carbonyl-containing compounds with ammonia as amine source (specific activity, absorbance at 340 nm); type: biochemical, Mycobacterium smegmatis; conditions: 10 mM of carbonyl-containing compound, ammonia as amine source
Experimental: as §1

enzyme of SEQ ID NO:2 [8] = assay: as above; type: biochemical, Cystobacter fuscus DSM 2262; conditions: 10 mM of carbonyl-containing compound, ammonia as amine source
Experimental: as §1

Cal-AmDH = conditions: as described in Pushpanath et al.; cited from earlier work
Bbad-AmDH = conditions: as described in Pushpanath et al.; cited from earlier work
PheDH-AmDH K77S/N276L = PheDH-AmDH K77S/N276L (Pseudobacillus badius, UniProt Q59224, K78S/N277L); conditions: prior-art engineered enzyme; cited from earlier work
enzyme of SEQ ID NO:4 [9] = assay: Screening of carbonyl-containing compounds with ammonia as amine source (specific activity, absorbance at 340 nm); type: biochemical, Aminomonas paucivorans DSM 12260; parameters: key to Detection of the expected compound, SEQ ID NO: 4: d: detected activity; nd: not detected activity; conditions: ammonia as amine source; for Detection of the expected compound, SEQ ID NO: 4: pH 9.5, 25° C.
Experimental: as §2, with “of ammonium formate” for “of TRIS.HCl”, “buffer (2 M NH4HCO2/NH4OH,” for “buffer (50 mM,”, “NADH or” for “NADH and”, “NADPH (0.2” for “NADPH (0.1 mM each), methylamine (500”, “(5 or 10” for “(5”

enzyme of SEQ ID NO:5 [10] = assay: as above; type: biochemical, Mycobacterium vaccae ATCC 25954; conditions: mixture NADH/NADPH (0.1 mM each), 5 mM of carbonyl-containing compound
Experimental: as §2, with “To a mixture of TRIS.HCl buffer (50 mM, pH 9.5), NADH and NADPH (0.1 mM each), methylamine (500 mM) and an appropriate amount of purified enzyme was added.” left out, “(5 or 10” for “(5”

[11] = 0.2 mM NADH (best of NADH/NADPH)
[12] = 0.2 mM NADH (best of NADH/NADPH), listed as drawing 150
[13] = methylamine (500 mM) as amine source, NADH/NADPH (0.1 mM each), carbonyl-containing compound 5 mM
[14] = 0.2 mM NADH (best of NADH/NADPH), listed as drawing 130
[15] = 0.2 mM NADPH (best of NADH/NADPH)

Sequence of PheDH-AmDH K77S/N276L (Q59224 whole entry K78S/N277L): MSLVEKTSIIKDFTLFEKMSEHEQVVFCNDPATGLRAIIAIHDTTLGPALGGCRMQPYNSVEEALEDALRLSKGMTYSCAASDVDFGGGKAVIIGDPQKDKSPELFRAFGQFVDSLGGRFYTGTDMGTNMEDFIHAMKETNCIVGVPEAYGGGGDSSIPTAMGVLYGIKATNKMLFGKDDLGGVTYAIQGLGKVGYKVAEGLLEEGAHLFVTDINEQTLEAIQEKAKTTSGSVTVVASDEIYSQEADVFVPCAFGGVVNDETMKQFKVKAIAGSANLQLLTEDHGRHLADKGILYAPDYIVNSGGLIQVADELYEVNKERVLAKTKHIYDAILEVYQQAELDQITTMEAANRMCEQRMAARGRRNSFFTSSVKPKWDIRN

With CC(C)C=O [2-methylpropanal] as the compound, how does the “Specific activity, SEQ ID NO: 3” value (enzyme of SEQ ID NO:3 [1]; [11]) read?
The value was 541.0 mU.mg^-1.

What about the “Specific activity, SEQ ID NO: 3” value (enzyme of SEQ ID NO:3 [1]; [12]) of the same compound?
Its value is 541.0^a mU.mg^-1.

And the “Specific activity, SEQ ID NO: 5” value (enzyme of SEQ ID NO:5 [2])?
The value was 262.6 mU.mg-^1.

What about the “activity of enzyme of SEQ ID NO:5 on the substrate with methylamine (in words)” value (enzyme of SEQ ID NO:5 [2]) of the same compound?
Its value is “active”.

And the “Specific activity, SEQ ID NO: 4” value (enzyme of SEQ ID NO:4 [3]; [13])?
The value was 30.3 mU.mg-^1.

And the “activity of enzyme of SEQ ID NO:4 on the substrate with methylamine (in words)” value (enzyme of SEQ ID NO:4 [3]; methylamine as amine source)?
Its value is “active”.

What about the “Specific activity, SEQ ID NO: 2” value (enzyme of SEQ ID NO:2 [4]; [13]) of the same compound?
Its value is 150.2 mU.mg-^1.

What about the “activity of enzyme of SEQ ID NO:2 on the substrate with methylamine (in words)” value (enzyme of SEQ ID NO:2 [4]; methylamine as amine source) of the same compound?
Its value is “active”.

And the “Specific activity, SEQ ID NO: 1” value (enzyme of SEQ ID NO:1 [5])?
The value was 144.5 mU.mg-^1.

And the “activity of enzyme of SEQ ID NO:1 on the substrate with methylamine (in words)” value (enzyme of SEQ ID NO:1 [5])?
Its value is “active”.

What about the “Specific activity, SEQ ID NO: 3” value (enzyme of SEQ ID NO:3 [6]) of the same compound?
The value was 851.3 mU.mg-^1.

And the “activity of enzyme of SEQ ID NO:3 on the substrate with methylamine (in words)” value (enzyme of SEQ ID NO:3 [6])?
Its value is “active”.

And the “Specific activity, SEQ ID NO: 1” value (enzyme of SEQ ID NO:1 [7]; [11])?
Its value is 556.5 mU.mg^-1.

And the “Specific activity, SEQ ID NO: 1” value (enzyme of SEQ ID NO:1 [7]; [12])?
Its value is 556.5^a mU.mg^-1.

What about the “Specific activity, SEQ ID NO: 2” value (enzyme of SEQ ID NO:2 [8]; [11]) of the same compound?
Its value is 119.2^a mU.mg^-1.

With O=C1CCCCC1 [cyclohexanone] as the compound, how does the “Specific activity, SEQ ID NO: 3” value (enzyme of SEQ ID NO:3 [1]; [11]) read?
The value was 614.5 mU.mg^-1.

What about the “Specific activity, SEQ ID NO: 3” value (enzyme of SEQ ID NO:3 [1]; [14]) of the same compound?
The value was 614.5^a mU.mg^-1.

And the “Specific activity, SEQ ID NO: 5” value (enzyme of SEQ ID NO:5 [2])?
The value was 12.6 mU.mg-^1.

What about the “activity of enzyme of SEQ ID NO:5 on the substrate with methylamine (in words)” value (enzyme of SEQ ID NO:5 [2]) of the same compound?
The value was “active”.

And the “Specific activity, SEQ ID NO: 1” value (enzyme of SEQ ID NO:1 [5])?
The value was 10.1 mU.mg-^1.

What about the “activity of enzyme of SEQ ID NO:1 on the substrate with methylamine (in words)” value (enzyme of SEQ ID NO:1 [5]) of the same compound?
Its value is “active”.

And the “Specific activity, SEQ ID NO: 3” value (enzyme of SEQ ID NO:3 [6])?
Its value is 90.4 mU.mg-^1.

And the “activity of enzyme of SEQ ID NO:3 on the substrate with methylamine (in words)” value (enzyme of SEQ ID NO:3 [6])?
Its value is “active”.

What about the “specific activity of Cal-AmDH” value (Cal-AmDH) of the same compound?
The value was 12.7 mU·mg^−1.

And the “Specific activity, SEQ ID NO: 1” value (enzyme of SEQ ID NO:1 [7]; [11])?
The value was 196.2 mU.mg^-1.

And the “Specific activity, SEQ ID NO: 1” value (enzyme of SEQ ID NO:1 [7]; [14])?
The value was 196.2^a mU.mg^-1.

What about the “Specific activity, SEQ ID NO: 2” value (enzyme of SEQ ID NO:2 [8]; [11]) of the same compound?
Its value is 135.9 mU.mg^-1.

What about the “Specific activity, SEQ ID NO: 2” value (enzyme of SEQ ID NO:2 [8]; [14]) of the same compound?
Its value is 135.9^a mU.mg^-1.

And the “specific activity of Bbad-AmDH” value (Bbad-AmDH)?
The value was 11.3 mU·mg^−1.

And the “specific activity of PheDH-AmDH K77S/N276L” value (PheDH-AmDH K77S/N276L)?
The value was 27 mU·mg^−1.

Which “Detection of the expected compound, SEQ ID NO: 4” value (enzyme of SEQ ID NO:4 [9]) does the source give for O=Cc1ccccc1 here?
The value was “d”.

Which “Specific activity, SEQ ID NO: 3” value (enzyme of SEQ ID NO:3 [1]; [15]) does the source give for CC(=O)C(C)O (stereo not shown) here?
The value was 324.4^b mU.mg^-1.

And the “Specific activity, SEQ ID NO: 1” value (enzyme of SEQ ID NO:1 [7]; [15])?
Its value is 177.7^b mU.mg^-1.

And the “Specific activity, SEQ ID NO: 2” value (enzyme of SEQ ID NO:2 [8]; [15])?
Its value is 42.4^b mU.mg^-1.

Which “Specific activity, SEQ ID NO: 3” value (enzyme of SEQ ID NO:3 [1]; [15]) does the source give for CC1CCC(=O)C1 (stereo not shown) here?
The value was 23.3^b mU.mg^-1.

And the “Specific activity, SEQ ID NO: 1” value (enzyme of SEQ ID NO:1 [7]; [15])?
The value was 7.7^b mU.mg^-1.

What about the “Specific activity, SEQ ID NO: 2” value (enzyme of SEQ ID NO:2 [8]; [15]) of the same compound?
The value was 13.9^b mU.mg^-1.

Which “Specific activity, SEQ ID NO: 5” value (enzyme of SEQ ID NO:5 [10]) does the source give for CCCC(C)=O [drawing 170] here?
The value was 6.1 mU.mg^-1.

Which “Specific activity, SEQ ID NO: 4” value (enzyme of SEQ ID NO:4 [9]; 0.2 mM NADH (best of NADH/NADPH), 10 mM of carbonyl-containing compound) does the source give for CCC(C)C=O (stereo not shown) [drawing 124] here?
The value was 129.6^a mU.mg^-1.

What about the “Detection of the expected compound, SEQ ID NO: 4” value (enzyme of SEQ ID NO:4 [9]) of the same compound?
The value was “d”.
